Consider three compounds from patent US5321032A, “Peptide compounds and pharmaceutical compositions thereof” (priority 1990, dated 1994).

This test deals with T1, substance P receptor (Cavia porcellus, UniProt P30547).
T1 construct: The trachea and lung were removed and homogenized in buffer; from tissue; host or cells: guinea pig trachea and lung, crude membrane fraction
T1 sequence (P30547 whole entry): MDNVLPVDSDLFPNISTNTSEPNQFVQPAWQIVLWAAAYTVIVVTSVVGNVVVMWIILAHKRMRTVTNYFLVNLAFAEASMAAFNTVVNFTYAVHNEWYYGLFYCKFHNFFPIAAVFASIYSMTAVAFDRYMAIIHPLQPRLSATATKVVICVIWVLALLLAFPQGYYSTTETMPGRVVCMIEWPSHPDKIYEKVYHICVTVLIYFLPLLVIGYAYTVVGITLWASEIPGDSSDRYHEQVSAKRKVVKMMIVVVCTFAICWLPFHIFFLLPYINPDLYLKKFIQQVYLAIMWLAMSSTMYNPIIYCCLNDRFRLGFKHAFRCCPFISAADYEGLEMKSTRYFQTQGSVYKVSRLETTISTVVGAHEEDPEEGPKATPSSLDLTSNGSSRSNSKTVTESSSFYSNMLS
As to the kind of experiment: 3H-Substance P binding to guinea pig crude lung membrane preparation. As to conditions: test compound 1 μg/ml; 3H-substance P 1 nM; crude lung membrane fractions, 4° C., 30 minutes. The method, then:
1. Binding with ^3 H-P substance receptor
(a) Crude lung membrane preparation
Male Hartly strain guinea pigs were sacrificed by decapitation, The trachea and lung were removed and homogenized in buffer (0.25M sucrose, 50 mM Tris-HCl pH 7.5, 0.1 mM MEDTA) by using Polytoron (Kinematica). The homogenate was centrifuged (1000 x g, 10 min) to remove tissue clumps and the supernatant was centrifuges (14000 x g, 20 min) to yield pellets. The pellets were resuspended in buffer (5 mM Tris-HC1 pH 7.5), homofenized with a teflon homogenizer and centrifuged (14000 x g, 20 min) to yield pellets which were referred to crude membrane fractions. The obtained pallets were stored at -70 ° C. until use.
(b) ^3 H-Substance P binding to preparation membrane
Frozen crude membrane fractions were thawed and resuspended in Medium 1 (50 mM Tris-HC1 pH 7.5, 5 mM MnCl2, 0.02% BSA, 2 μg/ml chymostatin, 4 μg/ml leupeptin, 40 μg/ml bacitaracin). ^3 H-substance P (1 nM ) was incubated with 100 μl of the membrane preparation in Medium 1 at 4° C. for 30 minutes in a final volume of 500 μl. At the end of the incubation over a Whatman GF/B glass filter (pretreated with 0.1% polyethylene imine for 3 hours prior to use) under aspiration. The filters werre then washed four times with 5 ml of the buffer (50 mM Tris-HCl, pH 7.5). The radioactivity was counted in 5 ml of Aquazol-2 in Packerd scintillation counter (Packerd TRI-CARB 4530).
For `CC(=O)N[C@H](C(=O)N[C@H](Cc1cn(C=O)c2ccccc12)C(=O)N[C@@H](Cc1cccs1)C(=O)N(C)Cc1ccccc1)[C@@H](C)O` [(a)], the “suppression rate (%)” value was 100%. Take `CC(=O)N[C@H](C(=O)N[C@H](Cc1cn(C=O)c2ccccc12)C(=O)N1Cc2ccccc2C[C@@H]1C(=O)N(C)Cc1ccccc1)[C@@H](C)O` [(b)]: the “suppression rate (%)” value is reported as 99%. The figure for `CC(=O)N[C@H](C(=O)N[C@H](Cc1cn(C=O)c2ccccc12)C(=O)N(C)[C@@H](Cc1ccccc1)C(=O)N(C)Cc1ccccc1)[C@@H](C)O` [(c)] is 96%.
